Data reported in patent US7396837B2, “Antitumoral analogs of lamellarins” (Pharma Mar, S.A.U., priority 2002, dated 2008).
Where two headings read alike, the source gives them in different places.

Experiments:
Assay type in all cases: cell-based
HeLa-APL = test: SRB colorimetric cell growth inhibition assay, HeLa-APL (aplidine resistant); conditions: Homo sapiens; for GI50: read-out: GI50 HELA-APL; for CC50: read-out: LC50 HELA-APL; for IC (TGI): read-out: TGI HELA-APL
Procedure, shortened: (§1)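 Growth inhibition (GI), cytostatic total growth inhibition (TGI) and cytotoxic cell-kill (LC) parameters were calculated from SRB-stained cultures held under constant compound exposure, triplicates averaged.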

LNCaP = test: SRB colorimetric cell growth inhibition assay, LNCaP; conditions: Homo sapiens, LNCaP; for GI50: read-out: GI50 LN-caP; for CC50: read-out: LC50 LN-caP; for IC (TGI): read-out: TGI LN-caP
Procedure, shortened: as §1

LoVo-Dox = test: SRB colorimetric cell growth inhibition assay, LoVo-Dox (MDR); conditions: Homo sapiens; for GI50: read-out: GI50 LOVO-DOX; for CC50: read-out: LC50 LOVO-DOX; for IC (TGI): read-out: TGI LOVO-DOX
Procedure, shortened: as §1

DU-145 = test: SRB colorimetric cell growth inhibition assay, DU-145; conditions: Homo sapiens
Procedure, shortened: as §1

SK-BR-3 = test: SRB colorimetric cell growth inhibition assay, SK-BR-3; conditions: Homo sapiens
Procedure, shortened: as §1

PANC-1 = test: SRB colorimetric cell growth inhibition assay, PANC-1; conditions: Homo sapiens
Procedure, shortened: as §1

HT-29 = test: SRB colorimetric cell growth inhibition assay, HT-29; conditions: Homo sapiens
Procedure, shortened: as §1

K-562 = test: SRB colorimetric cell growth inhibition assay, K-562; conditions: Homo sapiens
Procedure, shortened: as §1

IGROV = test: SRB colorimetric cell growth inhibition assay, IGROV; conditions: Homo sapiens, IGROV; for GI50: read-out: GI50 IGROV; for CC50: read-out: LC50 IGROV; for IC (TGI): read-out: TGI IGROV
Procedure, shortened: as §1

IGROV-ET = test: SRB colorimetric cell growth inhibition assay, IGROV-ET (ET-743 resistant); conditions: Homo sapiens; for GI50: read-out: GI50 IGROV-ET; for CC50: read-out: LC50 IGROV-ET; for IC (TGI): read-out: TGI IGROV-ET
Procedure, shortened: as §1

LoVo = test: SRB colorimetric cell growth inhibition assay, LoVo; conditions: Homo sapiens, LoVo; for GI50: read-out: GI50 LOVO; for CC50: read-out: LC50 LOVO; for IC (TGI): read-out: TGI LOVO
Procedure, shortened: as §1

A-549 = test: SRB colorimetric cell growth inhibition assay, A-549; conditions: Homo sapiens
Procedure, shortened: as §1

SK-MEL-28 = test: SRB colorimetric cell growth inhibition assay, SK-MEL-28; conditions: Homo sapiens
Procedure, shortened: as §1

HeLa = test: SRB colorimetric cell growth inhibition assay, HeLa; conditions: Homo sapiens, HeLa; for GI50: read-out: GI50 HELA; for CC50: read-out: LC50 HELA; for IC (TGI): read-out: TGI HELA
Procedure, shortened: as §1

[1] = cell killing (cytotoxic effect)
[2] = total growth inhibition (cytostatic effect)

## COc1cc2ccn3c(c(-c4ccc(OC(=O)[C@@H](NC(=O)OC(C)(C)C)C(C)C)c(OC)c4)c4c5cc(OC)c(OC(=O)[C@@H](NC(=O)OC(C)(C)C)C(C)C)cc5oc(=O)c43)c2cc1OC [Compound 15]
HeLa-APL; HELA-APL, GI=growth inhibition
  GI50: 2.43 µM
HeLa-APL; HELA-APL, cell killing (cytotoxic effect)
  CC50: 11 µM
HeLa-APL; HELA-APL, total growth inhibition (cytostatic effect)
  IC (TGI): 5.53 µM
LNCaP; LN-caP, GI=growth inhibition
  GI50: 0.056 µM
LNCaP; LN-caP, cell killing (cytotoxic effect)
  CC50: 3.93 µM
LNCaP; LN-caP, total growth inhibition (cytostatic effect)
  IC (TGI): 0.609 µM
LoVo-Dox; LOVO-DOX, GI=growth inhibition
  GI50: 11 µM
LoVo-Dox; LOVO-DOX, cell killing (cytotoxic effect)
  CC50: 11 µM
LoVo-Dox; LOVO-DOX, total growth inhibition (cytostatic effect)
  IC (TGI): 11 µM
DU-145; DU-145, DU-145, GI=growth inhibition, read-out: GI50 DU-145
  GI50: 0.0685 µM
DU-145; DU-145, DU-145, cell killing (cytotoxic effect), read-out: LC50 DU-145
  CC50: 11 µM
DU-145; DU-145, DU-145, total growth inhibition (cytostatic effect), read-out: TGI DU-145
  IC (TGI): 3.08 µM
SK-BR-3; SK-BR-3, SK-BR-3, GI=growth inhibition, read-out: GI50 SK-BR-3
  GI50: 0.0561 µM
SK-BR-3; SK-BR-3, SK-BR-3, cell killing (cytotoxic effect), read-out: LC50 SK-BR-3
  CC50: 5.84 µM
SK-BR-3; SK-BR-3, SK-BR-3, total growth inhibition (cytostatic effect), read-out: TGI SK-BR-3
  IC (TGI): 0.635 µM
PANC-1; PANC-1, PANC-1, GI=growth inhibition, read-out: GI50 PANC-1
  GI50: 1.54 µM
PANC-1; PANC-1, PANC-1, cell killing (cytotoxic effect), read-out: LC50 PANC-1
  CC50: 11 µM
PANC-1; PANC-1, PANC-1, total growth inhibition (cytostatic effect), read-out: TGI PANC-1
  IC (TGI): 5.26 µM
HT-29; HT-29, HT-29, GI=growth inhibition, read-out: GI50 HT-29
  GI50: 0.0473 µM
HT-29; HT-29, HT-29, cell killing (cytotoxic effect), read-out: LC50 HT-29
  CC50: 9.17 µM
HT-29; HT-29, HT-29, total growth inhibition (cytostatic effect), read-out: TGI HT-29
  IC (TGI): 0.111 µM
K-562; K562, K-562, GI=growth inhibition, read-out: GI50 K-562
  GI50: 1.6 µM
K-562; K562, K-562, cell killing (cytotoxic effect), read-out: LC50 K-562
  CC50: 9.57 µM
K-562; K562, K-562, total growth inhibition (cytostatic effect), read-out: TGI K-562
  IC (TGI): 3.91 µM
IGROV; GI=growth inhibition
  GI50: 0.0862 µM
IGROV; [1]
  CC50: 9.76 µM
IGROV; [2]
  IC (TGI): 2.03 µM
IGROV-ET; IGROV-ET, GI=growth inhibition
  GI50: 6.87 µM
IGROV-ET; IGROV-ET, cell killing (cytotoxic effect)
  CC50: 11 µM
IGROV-ET; IGROV-ET, total growth inhibition (cytostatic effect)
  IC (TGI): 11 µM
LoVo; GI=growth inhibition
  GI50: 1.68 µM
LoVo; [1]
  CC50: 11 µM
LoVo; [2]
  IC (TGI): 4.96 µM
A-549; A549, A-549, GI=growth inhibition, read-out: GI50 A-549
  GI50: 0.0541 µM
A-549; A549, A-549, cell killing (cytotoxic effect), read-out: LC50 A-549
  CC50: 11 µM
A-549; A549, A-549, total growth inhibition (cytostatic effect), read-out: TGI A-549
  IC (TGI): 1.46 µM
SK-MEL-28; SK-MEL-28, MEL-28, GI=growth inhibition, read-out: GI50 MEL-28
  GI50: 0.0482 µM
SK-MEL-28; SK-MEL-28, MEL-28, cell killing (cytotoxic effect), read-out: LC50 MEL-28
  CC50: 7.24 µM
SK-MEL-28; SK-MEL-28, MEL-28, total growth inhibition (cytostatic effect), read-out: TGI MEL-28
  IC (TGI): 1.64 µM
HeLa; GI=growth inhibition
  GI50: 0.0579 µM
HeLa; [1]
  CC50: 7.81 µM
HeLa; [2]
  IC (TGI): 1.41 µM

## COc1cc(-c2c3c4cc(OC)c(OC(=O)[C@H](C)NC(=O)[C@H](C)NC(=O)OC(C)(C)C)cc4oc(=O)c3n3ccc4c(OC(=O)[C@H](C)NC(=O)[C@H](C)NC(=O)OC(C)(C)C)c(OC)c(OC)cc4c23)ccc1OC(=O)[C@H](C)NC(=O)[C@H](C)NC(=O)OC(C)(C)C [Compound 6]
HeLa-APL
  GI50: 3.41 µM
  CC50: 7.96 µM
  IC (TGI): 7.96 µM
LNCaP
  GI50: 0.578 µM
  CC50: 7.96 µM
  IC (TGI): 7.96 µM
LoVo-Dox
  GI50: 3.84 µM
  CC50: 7.96 µM
  IC (TGI): 7.96 µM
DU-145; DU-145, read-out: GI50 DU-145
  GI50: 0.355 µM
DU-145; DU-145, read-out: LC50 DU-145
  CC50: 7.96 µM
DU-145; DU-145, read-out: TGI DU-145
  IC (TGI): 1.46 µM
SK-BR-3; SK-BR-3, read-out: GI50 SK-BR-3
  GI50: 0.548 µM
SK-BR-3; SK-BR-3, read-out: LC50 SK-BR-3
  CC50: 7.96 µM
SK-BR-3; SK-BR-3, read-out: TGI SK-BR-3
  IC (TGI): 2.56 µM
PANC-1; PANC-1, read-out: GI50 PANC-1
  GI50: 2.46 µM
PANC-1; PANC-1, read-out: LC50 PANC-1
  CC50: 7.96 µM
PANC-1; PANC-1, read-out: TGI PANC-1
  IC (TGI): 7.96 µM
HT-29; HT-29, read-out: GI50 HT-29
  GI50: 7.96 µM
HT-29; HT-29, read-out: LC50 HT-29
  CC50: 7.96 µM
HT-29; HT-29, read-out: TGI HT-29
  IC (TGI): 7.96 µM
K-562; K562, read-out: GI50 K-562
  GI50: 0.482 µM
K-562; K562, read-out: LC50 K-562
  CC50: 7.96 µM
K-562; K562, read-out: TGI K-562
  IC (TGI): 5.38 µM
IGROV
  GI50: 0.963 µM
  CC50: 7.96 µM
  IC (TGI): 7.96 µM
IGROV-ET
  GI50: 1.39 µM
  CC50: 7.96 µM
  IC (TGI): 7.96 µM
LoVo
  GI50: 2.79 µM
  CC50: 7.96 µM
  IC (TGI): 7.96 µM
A-549; A549, read-out: GI50 A-549
  GI50: 0.497 µM
A-549; A549, read-out: LC50 A-549
  CC50: 7.96 µM
A-549; A549, read-out: TGI A-549
  IC (TGI): 7.96 µM
SK-MEL-28; SK-MEL-28, read-out: GI50 MEL-28
  GI50: 0.386 µM
SK-MEL-28; SK-MEL-28, read-out: LC50 MEL-28
  CC50: 7.96 µM
SK-MEL-28; SK-MEL-28, read-out: TGI MEL-28
  IC (TGI): 1.74 µM
HeLa
  GI50: 0.584 µM
  CC50: 7.96 µM
  IC (TGI): 7.96 µM
